Experimental data from patent US12252524B2, “GIP/GLP1 co-agonist compounds” (Eli Lilly and Company, priority 2018, dated 2025).
Numbered stars: 1 amine (or outer) side, 2 acyl side, 3 side chain; on linkers, the order of the positions; unused ones are H or OH. Square brackets hold non-standard residues; d marks the D form. Side chains are listed from the residue outwards. Peptide text beside a SMILES is read from it. * marks the point of attachment. C20 diacid = O=C(O)CCCCCCCCCCCCCCCCCCC(=O)*; C18 diacid = O=C(O)CCCCCCCCCCCCCCCCC(=O)*; αMePhe(2-F) = C[C@](N)(Cc1ccccc1F)C(=O)O; γGlu = O=C(O)[C@H](CCC(=O)[*:2])N[*:1]; αMeY = C[C@](N)(Cc1ccc(O)cc1)C(=O)O; αMeL = CC(C)C[C@](C)(N)C(=O)O; Orn = NCCC[C@H](N)C(=O)O; AEEA = NCCOCCOCC(=O)O; Aib = CC(C)(N)C(=O)O

Columns and labels:
[1] = target: human GLP-1 receptor (GLP-1R) (Homo sapiens, UniProt P43220); experiment: cAMP pharmacological functional assay in presence of casein, hGLP-1R; type: cell-based; conditions: HEK293 cells expressing hGLP-1R, 0.1% Casein, geometric mean; read-out: hGLP1R cAMP Rel EC50 nM (SEM, n)
Chain of human GLP-1 receptor (GLP-1R) (P43220 24-463): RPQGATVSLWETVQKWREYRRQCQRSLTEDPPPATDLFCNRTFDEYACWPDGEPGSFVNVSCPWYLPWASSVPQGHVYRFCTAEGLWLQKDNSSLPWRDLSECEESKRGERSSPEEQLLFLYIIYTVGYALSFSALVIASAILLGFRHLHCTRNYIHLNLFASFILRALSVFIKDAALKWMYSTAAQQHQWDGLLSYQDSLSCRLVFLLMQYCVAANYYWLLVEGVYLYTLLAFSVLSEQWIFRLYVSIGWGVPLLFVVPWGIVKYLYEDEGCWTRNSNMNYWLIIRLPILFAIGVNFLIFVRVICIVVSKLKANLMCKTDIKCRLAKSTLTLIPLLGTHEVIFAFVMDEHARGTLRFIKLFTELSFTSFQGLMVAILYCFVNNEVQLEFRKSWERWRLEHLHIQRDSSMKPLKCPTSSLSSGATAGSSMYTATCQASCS

[2] = target: T1, gastric inhibitory peptide receptor (GIPR) (Homo sapiens, UniProt P48546); experiment: cAMP pharmacological functional assay in presence of casein, hGIPR; type: cell-based; conditions: HEK293 cells expressing hGIPR, 0.1% Casein, geometric mean; read-out: hGIPR cAMP Rel EC50 nM (SEM, n)
T1 sequence (P48546 22-466): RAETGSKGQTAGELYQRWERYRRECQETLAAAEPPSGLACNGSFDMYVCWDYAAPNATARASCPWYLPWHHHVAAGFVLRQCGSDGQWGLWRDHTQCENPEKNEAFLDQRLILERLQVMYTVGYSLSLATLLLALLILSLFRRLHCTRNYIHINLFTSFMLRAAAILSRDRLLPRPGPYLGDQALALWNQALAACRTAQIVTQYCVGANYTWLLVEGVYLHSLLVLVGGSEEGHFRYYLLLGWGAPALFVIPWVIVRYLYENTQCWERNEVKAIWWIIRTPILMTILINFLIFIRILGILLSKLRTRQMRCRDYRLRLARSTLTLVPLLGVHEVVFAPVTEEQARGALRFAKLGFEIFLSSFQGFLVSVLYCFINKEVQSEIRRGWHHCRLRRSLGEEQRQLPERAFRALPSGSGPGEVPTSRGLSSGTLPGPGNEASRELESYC

SMILES | EC50 [1] [nM] | EC50 [2] [nM]
CC[C@H](C)[C@H](NC(=O)[C@H](CC(C)C)NC(=O)[C@](C)(Cc1ccc(O)cc1)NC(=O)[C@@H](CCC(=O)O)NC(=O)[C@@H](NC(=O)[C@H](Cc1ccccc1)NC(=O)[C@@H](NC(=O)C(C)(C)NC(=O)[C@H](CCC(N)=O)NC(=O)[C@H](C)NC(=O)[C@H](CCCCNC(=O)COCCOCCNC(=O)COCCOCCNC(=O)CC[C@H](NC(=O)CCCCCCCCCCCCCCCCC(=O)O)C(=O)O)NC(=O)[C@H](CCCN)NC(=O)[C@H](CC(=O)O)NC(=O)[C@H](CC(C)C)NC(=O)[C@](C)(CC(C)C)NC(=O)[C@@H](NC(=O)[C@H](CO)NC(=O)[C@H](C)NC(=O)[C@H](CC(=O)O)NC(=O)[C@H](CO)NC(=O)[C@@H](NC(=O)[C@](C)(Cc1ccccc1F)NC(=O)[C@@H](NC(=O)CNC(=O)[C@H](CCC(=O)O)NC(=O)C(C)(C)NC(=O)[C@@H](N)Cc1ccc(O)cc1)[C@@H](C)O)[C@@H](C)O)[C@@H](C)CC)[C@@H](C)O)[C@@H](C)CC)C(=O)N[C@@H](CCC(=O)O)C(=O)NCC(=O)NCC(=O)N1CCC[C@H]1C(=O)N[C@@H](CO)C(=O)N[C@@H](CO)C(=O)NCC(=O)N[C@@H](C)C(=O)N1CCC[C@H]1C(=O)N1CCC[C@H]1C(=O)N1CCC[C@H]1C(=O)N[C@@H](CO)C(N)=O [Example 245] (H-Y[Aib]EGT[αMePhe(2-F)]TSDASI[αMeL]LD[Orn]K([AEEA-AEEA-γGlu-C18 diacid])AQ[Aib]TFI[dE][αMeY]LIEGGPSSGAPPPS-NH2) | 0.0222 | 0.0552
CC[C@H](C)[C@H](NC(=O)[C@H](CC(C)C)NC(=O)[C@H](Cc1ccc(O)cc1)NC(=O)[C@H](CCC(=O)O)NC(=O)[C@@H](NC(=O)[C@H](Cc1ccccc1)NC(=O)[C@H](C)NC(=O)[C@H](CCCCN)NC(=O)[C@H](CCC(N)=O)NC(=O)[C@H](C)NC(=O)[C@H](CCCCNC(=O)COCCOCCNC(=O)COCCOCCNC(=O)CC[C@H](NC(=O)CCCCCCCCCCCCCCCCCCC(=O)O)C(=O)O)NC(=O)[C@H](CCCCN)NC(=O)[C@H](CC(=O)O)NC(=O)[C@H](CC(C)C)NC(=O)[C@H](CC(C)C)NC(=O)[C@@H](NC(=O)[C@H](CO)NC(=O)[C@H](Cc1ccc(O)cc1)NC(=O)[C@H](CC(=O)O)NC(=O)[C@H](CO)NC(=O)[C@@H](NC(=O)[C@H](Cc1ccccc1)NC(=O)[C@@H](NC(=O)CNC(=O)[C@H](CCC(=O)O)NC(=O)C(C)(C)NC(=O)[C@@H](N)Cc1ccc(O)cc1)[C@@H](C)O)[C@@H](C)O)[C@@H](C)CC)[C@@H](C)CC)C(=O)N[C@@H](CCC(=O)O)C(=O)NCC(=O)NCC(=O)N1CCC[C@H]1C(=O)N[C@@H](CO)C(=O)N[C@@H](CO)C(=O)NCC(=O)N[C@@H](C)C(=O)N1CCC[C@H]1C(=O)N1CCC[C@H]1C(=O)N1CCC[C@H]1C(=O)N[C@@H](CO)C(N)=O [Example 256] | 0.0506 | 0.643
CC[C@H](C)[C@H](NC(=O)[C@H](CC(C)C)NC(=O)[C@H](Cc1ccc(O)cc1)NC(=O)[C@H](CCC(=O)O)NC(=O)[C@@H](NC(=O)[C@H](Cc1ccccc1)NC(=O)[C@H](C)NC(=O)[C@H](CCCNC(=N)N)NC(=O)[C@H](CCC(N)=O)NC(=O)[C@H](C)NC(=O)[C@H](CCCCNC(=O)COCCOCCNC(=O)COCCOCCNC(=O)CC[C@H](NC(=O)CCCCCCCCCCCCCCCCCCC(=O)O)C(=O)O)NC(=O)[C@H](CCCCN)NC(=O)[C@H](CC(=O)O)NC(=O)[C@H](CC(C)C)NC(=O)[C@H](CC(C)C)NC(=O)[C@@H](NC(=O)[C@H](CO)NC(=O)[C@H](Cc1ccc(O)cc1)NC(=O)[C@H](CC(=O)O)NC(=O)[C@H](CO)NC(=O)[C@@H](NC(=O)[C@H](Cc1ccccc1)NC(=O)[C@@H](NC(=O)CNC(=O)[C@H](CCC(=O)O)NC(=O)C(C)(C)NC(=O)[C@@H](N)Cc1ccc(O)cc1)[C@@H](C)O)[C@@H](C)O)[C@@H](C)CC)[C@@H](C)CC)C(=O)N[C@@H](CCC(=O)O)C(=O)NCC(=O)NCC(=O)N1CCC[C@H]1C(=O)N[C@@H](CO)C(=O)N[C@@H](CO)C(=O)NCC(=O)N[C@@H](C)C(=O)N1CCC[C@H]1C(=O)N1CCC[C@H]1C(=O)N1CCC[C@H]1C(=O)N[C@@H](CO)C(N)=O [Example 257] (H-Y[Aib]EGTFTSDYSILLDKK([AEEA-AEEA-γGlu-C20 diacid])AQRAFIEYLIEGGPSSGAPPPS-NH2; N-terminus assumed) | 0.0779 | 0.474
CC[C@H](C)[C@H](NC(=O)[C@H](CC(C)C)NC(=O)[C@H](Cc1ccc(O)cc1)NC(=O)[C@H](CCC(=O)O)NC(=O)[C@@H](NC(=O)[C@H](Cc1ccccc1)NC(=O)[C@H](C)NC(=O)[C@H](CCCCN)NC(=O)[C@H](CCC(N)=O)NC(=O)[C@H](C)NC(=O)[C@H](CCCCNC(=O)COCCOCCNC(=O)COCCOCCNC(=O)CC[C@H](NC(=O)CCCCCCCCCCCCCCCCCCC(=O)O)C(=O)O)NC(=O)[C@H](CCC(=O)O)NC(=O)[C@H](CC(=O)O)NC(=O)[C@H](CC(C)C)NC(=O)[C@H](CC(C)C)NC(=O)[C@@H](NC(=O)[C@H](CO)NC(=O)[C@H](Cc1ccc(O)cc1)NC(=O)[C@H](CC(=O)O)NC(=O)[C@H](CO)NC(=O)[C@@H](NC(=O)[C@H](Cc1ccccc1)NC(=O)[C@@H](NC(=O)CNC(=O)[C@H](CCC(=O)O)NC(=O)C(C)(C)NC(=O)[C@@H](N)Cc1ccc(O)cc1)[C@@H](C)O)[C@@H](C)O)[C@@H](C)CC)[C@@H](C)CC)C(=O)N[C@@H](CCC(=O)O)C(=O)NCC(=O)NCC(=O)N1CCC[C@H]1C(=O)N[C@@H](CO)C(=O)N[C@@H](CO)C(=O)NCC(=O)N[C@@H](C)C(=O)N1CCC[C@H]1C(=O)N1CCC[C@H]1C(=O)N1CCC[C@H]1C(=O)N[C@@H](CO)C(N)=O [Example 258] (H-Y[Aib]EGTFTSDYSILLDEK([AEEA-AEEA-γGlu-C20 diacid])AQKAFIEYLIEGGPSSGAPPPS-NH2; N-terminus assumed) | 0.174 | 2.43
CC[C@H](C)[C@H](NC(=O)[C@H](CC(C)C)NC(=O)[C@H](Cc1ccc(O)cc1)NC(=O)[C@H](CCC(=O)O)NC(=O)[C@@H](NC(=O)[C@H](Cc1ccccc1)NC(=O)[C@H](C)NC(=O)C(C)(C)NC(=O)[C@H](CCC(N)=O)NC(=O)[C@H](C)NC(=O)[C@H](CCCCNC(=O)COCCOCCNC(=O)COCCOCCNC(=O)CC[C@H](NC(=O)CCCCCCCCCCCCCCCCCCC(=O)O)C(=O)O)NC(=O)[C@H](CCC(=O)O)NC(=O)[C@H](CC(=O)O)NC(=O)[C@H](CC(C)C)NC(=O)[C@H](CC(C)C)NC(=O)[C@@H](NC(=O)[C@H](CO)NC(=O)[C@H](Cc1ccc(O)cc1)NC(=O)[C@H](CC(=O)O)NC(=O)[C@H](CO)NC(=O)[C@@H](NC(=O)[C@H](Cc1ccccc1)NC(=O)[C@@H](NC(=O)CNC(=O)[C@H](CCC(=O)O)NC(=O)C(C)(C)NC(=O)[C@@H](N)Cc1ccc(O)cc1)[C@@H](C)O)[C@@H](C)O)[C@@H](C)CC)[C@@H](C)CC)C(=O)N[C@@H](CCC(=O)O)C(=O)NCC(=O)NCC(=O)N1CCC[C@H]1C(=O)N[C@@H](CO)C(=O)N[C@@H](CO)C(=O)NCC(=O)N[C@@H](C)C(=O)N1CCC[C@H]1C(=O)N1CCC[C@H]1C(=O)N1CCC[C@H]1C(=O)N[C@@H](CO)C(N)=O [Example 259] (H-Y[Aib]EGTFTSDYSILLDEK([AEEA-AEEA-γGlu-C20 diacid])AQ[Aib]AFIEYLIEGGPSSGAPPPS-NH2; N-terminus assumed) | 0.145 | 0.257
CC[C@H](C)[C@H](NC(=O)[C@H](CC(C)C)NC(=O)[C@H](Cc1ccc(O)cc1)NC(=O)[C@H](CCC(=O)O)NC(=O)[C@@H](NC(=O)[C@H](Cc1ccccc1)NC(=O)[C@H](C)NC(=O)C(C)(C)NC(=O)[C@H](CCC(N)=O)NC(=O)[C@H](C)NC(=O)[C@H](CCCCNC(=O)COCCOCCNC(=O)COCCOCCNC(=O)CC[C@H](NC(=O)CCCCCCCCCCCCCCCCCCC(=O)O)C(=O)O)NC(=O)[C@H](CCCCN)NC(=O)[C@H](CC(=O)O)NC(=O)[C@H](CC(C)C)NC(=O)[C@H](CC(C)C)NC(=O)[C@@H](NC(=O)[C@H](CO)NC(=O)[C@H](Cc1c[nH]cn1)NC(=O)[C@H](CC(=O)O)NC(=O)[C@H](CO)NC(=O)[C@@H](NC(=O)[C@H](Cc1ccccc1)NC(=O)[C@@H](NC(=O)CNC(=O)[C@H](CCC(=O)O)NC(=O)C(C)(C)NC(=O)[C@@H](N)Cc1ccc(O)cc1)[C@@H](C)O)[C@@H](C)O)[C@@H](C)CC)[C@@H](C)CC)C(=O)N[C@@H](CCC(=O)O)C(=O)NCC(=O)NCC(=O)N1CCC[C@H]1C(=O)N[C@@H](CO)C(=O)N[C@@H](CO)C(=O)NCC(=O)N[C@@H](C)C(=O)N1CCC[C@H]1C(=O)N1CCC[C@H]1C(=O)N1CCC[C@H]1C(=O)N[C@@H](CO)C(N)=O [Example 260] (H-Y[Aib]EGTFTSDHSILLDKK([AEEA-AEEA-γGlu-C20 diacid])AQ[Aib]AFIEYLIEGGPSSGAPPPS-NH2; N-terminus assumed) | 0.408 | 0.617
